We go through 23 compounds from patent US10189841B2, “Purinones as ubiquitin-specific protease 1 inhibitors” (Forma Therapeutics, Inc., priority 2015, dated 2019).

Molecules are shown by their SMILES.

The experiment deals with USP1 (construct USP1 (I-785, GG670, 671AA)/UAF1 (I-677)-Flag) (Homo sapiens (Human), UniProt O94782, G670A/G671A). Nature of the experiment: Ubiquitin-Rhodamine 110 assay for USP1 activity. In kind it is biochemical. The settings on record: USP1/UAF1 25 pM, Ub-Rh110 25 nM, 30 min preincubation. An outline of the steps: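 Ub-Rh110 (25 nM, ≪Km) cleavage read at ex 485/em 535 in Tris pH 8.0, CaCl2, GSH, Prionex, Triton X-100. The screen used 10 µM compound, 100 pM USP1/UAF1 and 45 min at RT.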
USP1 (construct USP1 (I-785, GG670, 671AA)/UAF1 (I-677)-Flag), sequence (O94782 whole entry G670A/G671A): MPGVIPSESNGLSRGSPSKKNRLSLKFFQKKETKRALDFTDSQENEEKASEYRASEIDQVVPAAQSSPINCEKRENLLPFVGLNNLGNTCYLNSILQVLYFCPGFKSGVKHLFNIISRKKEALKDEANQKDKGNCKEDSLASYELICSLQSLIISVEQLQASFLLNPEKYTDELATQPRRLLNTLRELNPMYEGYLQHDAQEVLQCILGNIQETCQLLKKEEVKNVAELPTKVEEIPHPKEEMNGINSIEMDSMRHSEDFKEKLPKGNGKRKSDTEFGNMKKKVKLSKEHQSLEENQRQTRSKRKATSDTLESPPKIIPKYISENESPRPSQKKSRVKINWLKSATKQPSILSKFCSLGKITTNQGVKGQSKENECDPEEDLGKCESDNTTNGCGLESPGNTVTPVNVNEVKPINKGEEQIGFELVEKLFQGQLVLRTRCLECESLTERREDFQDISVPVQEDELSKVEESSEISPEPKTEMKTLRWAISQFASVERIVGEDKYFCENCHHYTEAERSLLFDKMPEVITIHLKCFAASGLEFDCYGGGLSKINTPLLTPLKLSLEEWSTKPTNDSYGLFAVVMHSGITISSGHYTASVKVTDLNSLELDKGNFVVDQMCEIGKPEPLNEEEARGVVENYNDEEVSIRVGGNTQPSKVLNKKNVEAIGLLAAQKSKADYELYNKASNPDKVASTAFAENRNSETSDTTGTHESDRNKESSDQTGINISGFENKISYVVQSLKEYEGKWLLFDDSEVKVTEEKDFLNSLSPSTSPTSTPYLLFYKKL
USP1 (construct USP1 (I-785, GG670, 671AA)/UAF1 (I-677)-Flag), sequence (Q8TAF3 whole entry partner): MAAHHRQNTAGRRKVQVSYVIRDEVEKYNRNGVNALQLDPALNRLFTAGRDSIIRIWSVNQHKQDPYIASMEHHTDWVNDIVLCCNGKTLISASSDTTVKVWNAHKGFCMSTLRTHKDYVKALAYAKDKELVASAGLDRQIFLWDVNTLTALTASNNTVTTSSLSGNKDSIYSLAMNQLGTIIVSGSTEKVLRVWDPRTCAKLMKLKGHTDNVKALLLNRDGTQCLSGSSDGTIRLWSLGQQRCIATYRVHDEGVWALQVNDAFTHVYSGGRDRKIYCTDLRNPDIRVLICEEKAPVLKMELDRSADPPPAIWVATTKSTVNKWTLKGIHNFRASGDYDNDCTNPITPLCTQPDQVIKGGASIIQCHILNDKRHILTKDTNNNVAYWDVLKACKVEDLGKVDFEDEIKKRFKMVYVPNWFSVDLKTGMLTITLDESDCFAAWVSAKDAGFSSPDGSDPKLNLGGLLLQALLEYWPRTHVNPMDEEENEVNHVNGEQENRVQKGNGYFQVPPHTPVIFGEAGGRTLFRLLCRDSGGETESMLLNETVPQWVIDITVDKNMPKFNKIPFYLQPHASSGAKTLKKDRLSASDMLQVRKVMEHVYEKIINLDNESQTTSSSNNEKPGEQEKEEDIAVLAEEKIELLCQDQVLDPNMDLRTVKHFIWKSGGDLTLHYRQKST
Broadly, the IC50 is the concentration that gives 50% inhibition. A higher IC50 goes with weaker potency in that assay. `Cn1cc(C(F)(F)F)nc1-c1ccc(Cn2c(=O)n(C)c3cnc(-c4cccnc4N4CC(C(F)(F)F)C4)nc32)cc1` [Compound I-136, 7-methyl-9-(4-(1-methyl-4-(trifluoromethyl)-1H-imidazol-2-yl)benzyl)-2-(2-(3-(trifluoromethyl)azetidin-1-yl)pyridin-3-yl)-7,9-dihydro-8H-purin-8-one] registered an IC50 of 50 to 200 nM. Under `COCCOc1ncccc1-c1ncc2[nH]c(=O)n(Cc3ccc(-c4nc(C(F)(F)F)cn4C)cc3)c2n1` [Compound I-423, 2-(2-(2-methoxyethoxy)pyridin-3-yl)-9-(4-(1-methyl-4-(trifluoromethyl)-1H-imidazol-2-yl)benzyl)-7,9-dihydro-8H-purin-8-one] stands 50 to 200 nM; under `CCOCCOc1ccc(Cn2c(=O)n(C)c3cnc(-c4ccccc4C(C)C)nc32)cc1` [Compound I-236, 9-(4-(2-ethoxyethoxy)benzyl)-2-(2-isopropylphenyl)-7-methyl-7,9-dihydro-8H-purin-8-one], below 50 nM. Compound `CCc1ccccc1-c1ncc2[nH]c(=O)n(Cc3ccc(-n4cccn4)cc3)c2n1` [Compound I-27, 9-(4-(1H-pyrazol-1-yl)benzyl)-2-(2-ethylphenyl)-7,9-dihydro-8H-purin-8-one] returned an IC50 of 50 to 200 nM. In turn, `CNc1ncccc1-c1ncc2[nH]c(=O)n(Cc3ccc(-c4nc(C(F)(F)F)cn4C)cc3)c2n1` [Compound I-311, 9-(4-(1-methyl-4-(trifluoromethyl)-1H-imidazol-2-yl)benzyl)-2-(2-(methylamino)pyridin-3-yl)-7,9-dihydro-8H-purin-8-one] yielded an IC50 below 50 nM. For `CC(C)c1ccccc1-c1ncc2c(n1)n(Cc1ccc(-c3ccc(OCCN(C)C)cc3)cc1)c(=O)n2C` [Compound I-261, 9-((4′-(2-(dimethylamino)ethoxy)-[1,1′-biphenyl]-4-yl)methyl)-2-(2-isopropylphenyl)-7-methyl-7,9-dihydro-8H-purin-8-one] the value was 50 to 200 nM; for `CC(C)c1ccccc1-c1ncc2[nH]c(=O)n(Cc3ccc(-c4cncn4C)cc3)c2n1` [Compound I-251, 2-(2-isopropylphenyl)-9-(4-(1-methyl-1H-imidazol-5-yl)benzyl)-7,9-dihydro-8H-purin-8-one], 200 to 2000 nM.

Take `CC(C)c1ccccc1-c1ncc2[nH]c(=O)n(Cc3ccc(-n4ccc(N5CCNCC5)n4)cc3)c2n1` [Compound I-432, 2-(2-isopropylphenyl)-9-(4-(3-(piperazin-1-yl)-1H-pyrazol-1-yl)benzyl)-7,9-dihydro-8H-purin-8-one]: the half-inhibitory concentration (IC50) lay in the range of 200 to 2000 nM. With `Cn1cc(C(F)(F)F)nc1-c1ccc(Cn2c(=O)[nH]c3cnc(-c4cccnc4F)nc32)cc1` [Compound I-57, 2-(2-fluoropyridin-3-yl)-9-(4-(1-methyl-4-(trifluoromethyl)-1H-imidazol-2-yl)benzyl)-7,9-dihydro-8H-purin-8-one], the concentration for half-maximal inhibition (IC50) fell in the range of 200 to 2000 nM. For `CC(C)c1ccccc1-c1ncc2[nH]c(=O)n(C3CCN(c4cccnc4)CC3)c2n1` [Compound I-144, 2-(2-isopropylphenyl)-9-(1-(pyridin-3-yl)piperidin-4-yl)-7,9-dihydro-8H-purin-8-one] the value was above 2000 nM; for `CC(C)c1ccccc1-c1ncc2[nH]c(=O)n(Cc3ccc(C(=O)N4CCOC[C@H]4C)cc3)c2n1` [Compound I-404, (R)-2-(2-isopropylphenyl)-9-(4-(3-methylmorpholine-4-carbonyl)benzyl)-7,9-dihydro-8H-purin-8-one], 200 to 2000 nM. Under `COc1ccc(-c2ncc3[nH]c(=O)n(Cc4ccc(-c5nc(C(F)(F)F)cn5C)cc4)c3n2)c(F)n1` [Compound I-75, 2-(2-fluoro-6-methoxypyridin-3-yl)-9-(4-(1-methyl-4-(trifluoromethyl)-1H-imidazol-2-yl)benzyl)-7,9-dihydro-8H-purin-8-one] stands 50 to 200 nM; under `CN1CCC(c2ccn(-c3ccc(Cn4c(=O)[nH]c5cnc(-c6cccnc6OCC(F)(F)F)nc54)cc3)n2)CC1` [Compound I-443, 9-(4-(3-(1-methylpiperidin-4-yl)-1H-pyrazol-1-yl)benzyl)-2-(2-(2,2,2-trifluoroethoxy)pyridin-3-yl)-7,9-dihydro-8H-purin-8-one], 200 to 2000 nM. For `CCN(CC)c1ncccc1-c1ncc2[nH]c(=O)n(Cc3ccc(-c4nc(C(F)(F)F)cn4C)cc3)c2n1` [Compound I-324, 2-(2-(diethylamino)pyridin-3-yl)-9-(4-(1-methyl-4-(trifluoromethyl)-1H-imidazol-2-yl)benzyl)-7,9-dihydro-8H-purin-8-one] the value was below 50 nM.

Consider `CC(C)c1c(F)cccc1-c1ncc2[nH]c(=O)n(Cc3ccc(-c4cn(C)cn4)cc3)c2n1` [Compound I-308, 2-(3-fluoro-2-isopropylphenyl)-9-(4-(1-methyl-1H-imidazol-4-yl)benzyl)-7,9-dihydro-8H-purin-8-one], for which the IC50 is below 50 nM. Under `CC(C)c1ncccc1-c1ncc2c(n1)n(Cc1ccc(-c3nc(C(F)(F)F)cn3C)cc1F)c(=O)n2C` [Compound I-127, 9-(2-fluoro-4-(1-methyl-4-(trifluoromethyl)-1H-imidazol-2-yl)benzyl)-2-(2-isopropylpyridin-3-yl)-7-methyl-7,9-dihydro-8H-purin-8-one] stands 50 to 200 nM; under `Cc1cc(C(F)(F)F)n(-c2ccc(Cn3c(=O)[nH]c4cnc(-c5ccccc5C(C)C)nc43)cc2)n1` [Compound I-195, 2-(2-isopropylphenyl)-9-(4-(3-methyl-5-(trifluoromethyl)-1H-pyrazol-1-yl)benzyl)-7,9-dihydro-8H-purin-8-one], below 50 nM; under `CCC1CCCCN1C(=O)c1ccc(Cn2c(=O)[nH]c3cnc(-c4ccccc4C(C)C)nc32)cc1` (centres unmarked) [Compound I-397, 9-(4-(2-ethylpiperidine-1-carbonyl)benzyl)-2-(2-isopropylphenyl)-7,9-dihydro-8H-purin-8-one], below 50 nM. Compound `Cc1nnc(-c2ccc(Cn3c(=O)[nH]c4cnc(-c5ccccc5C(C)C)nc43)cc2)o1` [Compound I-150, 2-(2-isopropylphenyl)-9-(4-(5-methyl-1,3,4-oxadiazol-2-yl)benzyl)-7,9-dihydro-8H-purin-8-one] yielded a half-inhibitory concentration (IC50) below 50 nM. Under `CC(C)c1ccccc1-c1ncc2c(n1)n(Cc1ccc(-c3cn(C)cn3)cc1)c(=O)n2C` [Compound I-271, 2-(2-isopropylphenyl)-7-methyl-9-(4-(1-methyl-1H-imidazol-4-yl)benzyl)-7,9-dihydro-8H-purin-8-one] stands below 50 nM. Under `CCCN(C)C(=O)c1ccc(Cn2c(=O)[nH]c3cnc(-c4ccccc4C(C)C)nc32)cc1` [Compound I-374, 4-((2-(2-isopropylphenyl)-8-oxo-7,8-dihydro-9H-purin-9-yl)methyl)-N-methyl-N-propylbenzamide] stands below 50 nM. For `Cc1cn(-c2ccc(Cn3c(=O)[nH]c4cnc(-c5ccccc5C(C)C)nc43)cc2)nn1` [Compound I-175, 2-(2-isopropylphenyl)-9-(4-(4-methyl-1H-1,2,3-triazol-1-yl)benzyl)-7,9-dihydro-8H-purin-8-one] the value was below 50 nM; for `CC(C)c1ccccc1-c1ncc2c(n1)n(Cc1ccc(NCC3CC3)cc1)c(=O)n2C` [Compound I-488, 9-(4-((cyclopropylmethyl)amino)benzyl)-2-(2-isopropylphenyl)-7-methyl-7,9-dihydro-8H-purin-8-one], 50 to 200 nM.
